Reference: ChEMBL document CHEMBL5465560, “Selectivity Literature for EUbOPEN Chemogenomic Library” (2024)

Columns and labels:
[1] = biological target: T1, Tyrosine-protein kinase ABL2 (Homo sapiens, UniProt P42684); assay: (§1) Selectivity interaction (Radiometric assay (Reaction Biology)) EUB0000121b ABL2; conditions: at 10 µM
[2] = biological target: T1, Tyrosine-protein kinase ABL2; assay: as §1
[3] = biological target: Calcium/calmodulin-dependent protein kinase type IV (Homo sapiens, UniProt Q16566); assay: Selectivity interaction (Radiometric assay (Reaction Biology)) EUB0000121b CAMK4
[4] = biological target: CDK1/Cyclin E (Homo sapiens) (UniProt P06493+P24864); assay: Selectivity interaction (NanoBRET assay in HEK293T cells) EUB0000121b CDK1; type: cell-based; conditions: HEK-293T, at 10 µM
[5] = biological target: CDK10/Cyclin L2 (Homo sapiens) (UniProt Q15131+Q96S94); assay: Selectivity interaction (NanoBRET assay in HEK293T cells) EUB0000121b CDK10; type: cell-based; conditions: HEK-293T, at 10 µM
[6] = biological target: CDK11A/Cyclin L2 (Homo sapiens) (UniProt Q9UQ88+Q96S94); assay: Selectivity interaction (NanoBRET assay in HEK293T cells) EUB0000121b CDK11A; type: cell-based; conditions: HEK-293T, at 10 µM
[7] = biological target: CDK11B/Cyclin L2 (Homo sapiens) (UniProt P21127+Q96S94); assay: Selectivity interaction (NanoBRET assay in HEK293T cells) EUB0000121b CDK11B; type: cell-based; conditions: HEK-293T, at 10 µM
[8] = biological target: CDK12/Cyclin K (Homo sapiens) (UniProt O75909+Q9NYV4); assay: Selectivity interaction (NanoBRET assay in HEK293T cells) EUB0000121b CDK12; type: cell-based; conditions: HEK-293T, at 10 µM
[9] = biological target: Cyclin-dependent kinase 13/Cyclin-K (Homo sapiens) (UniProt Q14004+O75909); assay: Selectivity interaction (NanoBRET assay in HEK293T cells) EUB0000121b CDK13; type: cell-based; conditions: HEK-293T, at 10 µM
[10] = biological target: Cyclin-dependent kinase 14/Cyclin-Y (Homo sapiens) (UniProt O94921+Q8ND76); assay: Selectivity interaction (NanoBRET assay in HEK293T cells) EUB0000121b CDK14; type: cell-based; conditions: HEK-293T, at 10 µM
[11] = biological target: CDK15/Cyclin Y (Homo sapiens) (UniProt Q96Q40+Q8ND76); assay: Selectivity interaction (NanoBRET assay in HEK293T cells) EUB0000121b CDK15; type: cell-based; conditions: HEK-293T, at 10 µM
[12] = biological target: Cyclin-Y/Cyclin-dependent kinase 16 (Homo sapiens) (UniProt Q00536+Q8ND76); assay: Selectivity interaction (NanoBRET assay in HEK293T cells) EUB0000121b CDK16; type: cell-based; conditions: HEK-293T, at 10 µM
[13] = biological target: CDK17/Cyclin-Y (Homo sapiens) (UniProt Q00537+Q8ND76); assay: Selectivity interaction (NanoBRET assay in HEK293T cells) EUB0000121b CDK17; type: cell-based; conditions: HEK-293T, at 10 µM
[14] = biological target: CDK18/Cyclin Y (Homo sapiens) (UniProt Q07002+Q8ND76); assay: Selectivity interaction (NanoBRET assay in HEK293T cells) EUB0000121b CDK18; type: cell-based; conditions: HEK-293T, at 10 µM
[15] = biological target: Cyclin-C/Cyclin-dependent kinase 19 (Homo sapiens) (UniProt Q9BWU1+P24863); assay: Selectivity interaction (NanoBRET assay in HEK293T cells) EUB0000121b CDK19; type: cell-based; conditions: HEK-293T, at 10 µM
[16] = biological target: Cyclin-dependent kinase 2/cyclin E1 (Homo sapiens) (UniProt P24864+P24941); assay: Selectivity interaction (NanoBRET assay in HEK293T cells) EUB0000121b CDK2; type: cell-based; conditions: HEK-293T, at 10 µM
[17] = biological target: Cyclin-dependent kinase 2/cyclin A (Homo sapiens, UniProt P24941); assay: Selectivity interaction (LanthaScreen Eu Kinase Binding Assay (Invitrogen)) EUB0000121b CDK2; type: protein-complex assay
[18] = biological target: CDK20/Cyclin H (Homo sapiens) (UniProt P51946+Q8IZL9); assay: Selectivity interaction (NanoBRET assay in HEK293T cells) EUB0000121b CDK20; type: cell-based; conditions: HEK-293T, at 10 µM
[19] = biological target: CDK3/Cyclin E (Homo sapiens) (UniProt P24864+Q00526); assay: Selectivity interaction (NanoBRET assay in HEK293T cells) EUB0000121b CDK3; type: cell-based; conditions: HEK-293T, at 10 µM
[20] = biological target: Cyclin-dependent kinase 4/cyclin D1 (Homo sapiens) (UniProt P11802+P24385); assay: Selectivity interaction (NanoBRET assay in HEK293T cells) EUB0000121b CDK4; type: cell-based; conditions: HEK-293T, at 10 µM
[21] = biological target: Cyclin-dependent kinase 5/CDK5 activator 1 (Homo sapiens) (UniProt Q00535+Q15078); assay: Selectivity interaction (NanoBRET assay in HEK293T cells) EUB0000121b CDK5; type: cell-based; conditions: HEK-293T, at 10 µM
[22] = biological target: CDK6/cyclin D1 (Homo sapiens) (UniProt P24385+Q00534); assay: Selectivity interaction (NanoBRET assay in HEK293T cells) EUB0000121b CDK6; type: cell-based; conditions: HEK-293T, at 10 µM
[23] = biological target: CDK6/cyclin D3 (Homo sapiens, UniProt Q00534); assay: Selectivity interaction ( In-vitro potency (TR-FRET-based LANCE Ultra assay)) EUB0000121b CDK6; type: protein-complex assay
[24] = biological target: Cyclin-dependent kinase 7 (Homo sapiens, UniProt P50613); assay: Selectivity interaction (NanoBRET assay in HEK293T cells) EUB0000121b CDK7; type: cell-based; conditions: HEK-293T, at 10 µM
[25] = biological target: T2, CDK7/Cyclin H/MNAT1 (Homo sapiens, UniProt P50613); assay: Selectivity interaction (LanthaScreen Eu Kinase Binding Assay (Invitrogen)) EUB0000121b CDK7; type: protein-complex assay
[26] = biological target: T2, CDK7/Cyclin H/MNAT1; assay: Selectivity interaction ( In-vitro potency (TR-FRET-based LANCE Ultra assay)) EUB0000121b CDK7; type: protein-complex assay
[27] = biological target: CDK8/Cyclin C (Homo sapiens) (UniProt P49336+P24863); assay: Selectivity interaction (NanoBRET assay in HEK293T cells) EUB0000121b CDK8; type: cell-based; conditions: HEK-293T, at 10 µM
[28] = biological target: CDK9/Cyclin K (Homo sapiens) (UniProt P50750+O75909); assay: Selectivity interaction (NanoBRET assay in HEK293T cells) EUB0000121b CDK9; type: cell-based; conditions: HEK-293T, at 10 µM
[29] = biological target: T3, Glycogen synthase kinase-3 alpha (Homo sapiens, UniProt P49840); assay: (§2) Selectivity interaction (Radiometric assay (Reaction Biology)) EUB0000121b GSK3A; conditions: at 10 µM
[30] = biological target: T3, Glycogen synthase kinase-3 alpha; assay: as §2
[31] = biological target: T4, Mitogen-activated protein kinase kinase kinase kinase 4 (Homo sapiens, UniProt O95819); assay: (§3) Selectivity interaction (Radiometric assay (Reaction Biology)) EUB0000121b MAP4K4; conditions: at 10 µM
[32] = biological target: T4, Mitogen-activated protein kinase kinase kinase kinase 4; assay: as §3

T1 sequence (P42684 whole entry): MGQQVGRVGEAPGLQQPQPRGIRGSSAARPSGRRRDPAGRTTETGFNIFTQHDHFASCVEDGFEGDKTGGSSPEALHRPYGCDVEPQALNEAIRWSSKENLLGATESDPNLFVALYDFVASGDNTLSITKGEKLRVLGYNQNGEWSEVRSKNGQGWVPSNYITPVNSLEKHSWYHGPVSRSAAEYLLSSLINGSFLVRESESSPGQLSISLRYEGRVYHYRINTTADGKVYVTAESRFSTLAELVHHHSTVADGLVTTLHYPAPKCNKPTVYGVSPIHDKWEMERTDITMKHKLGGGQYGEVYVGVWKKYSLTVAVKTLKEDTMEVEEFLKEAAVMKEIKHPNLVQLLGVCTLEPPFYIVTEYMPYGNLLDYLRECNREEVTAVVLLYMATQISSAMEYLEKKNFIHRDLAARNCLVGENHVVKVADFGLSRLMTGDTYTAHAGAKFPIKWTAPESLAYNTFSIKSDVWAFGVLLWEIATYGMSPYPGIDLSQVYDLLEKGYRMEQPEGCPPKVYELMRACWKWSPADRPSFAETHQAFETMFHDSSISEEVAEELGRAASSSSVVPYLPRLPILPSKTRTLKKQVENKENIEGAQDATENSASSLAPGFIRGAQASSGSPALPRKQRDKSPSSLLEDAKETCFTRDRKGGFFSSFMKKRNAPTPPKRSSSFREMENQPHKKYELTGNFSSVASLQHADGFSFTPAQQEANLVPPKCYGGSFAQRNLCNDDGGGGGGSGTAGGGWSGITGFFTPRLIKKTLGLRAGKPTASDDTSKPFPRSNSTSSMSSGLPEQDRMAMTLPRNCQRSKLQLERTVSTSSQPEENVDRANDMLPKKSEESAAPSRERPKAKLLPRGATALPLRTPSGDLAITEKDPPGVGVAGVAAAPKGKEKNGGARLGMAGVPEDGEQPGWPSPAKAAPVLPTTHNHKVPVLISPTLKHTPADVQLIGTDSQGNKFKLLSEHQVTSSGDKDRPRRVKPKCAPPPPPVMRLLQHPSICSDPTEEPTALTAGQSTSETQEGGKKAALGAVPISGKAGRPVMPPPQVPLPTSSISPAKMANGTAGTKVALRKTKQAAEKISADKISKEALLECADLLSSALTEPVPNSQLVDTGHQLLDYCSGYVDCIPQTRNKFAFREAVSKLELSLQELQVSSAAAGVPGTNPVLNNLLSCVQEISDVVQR
T2 sequence (P51946 whole entry): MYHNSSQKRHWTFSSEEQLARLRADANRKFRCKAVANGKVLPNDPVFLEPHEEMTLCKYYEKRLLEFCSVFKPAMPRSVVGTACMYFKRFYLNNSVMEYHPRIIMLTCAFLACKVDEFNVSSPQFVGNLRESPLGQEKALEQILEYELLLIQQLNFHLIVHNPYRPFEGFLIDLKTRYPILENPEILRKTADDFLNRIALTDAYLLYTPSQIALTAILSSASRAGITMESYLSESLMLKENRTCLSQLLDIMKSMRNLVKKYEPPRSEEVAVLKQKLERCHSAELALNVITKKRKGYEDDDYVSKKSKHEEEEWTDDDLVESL
T2 sequence (P50613 whole entry): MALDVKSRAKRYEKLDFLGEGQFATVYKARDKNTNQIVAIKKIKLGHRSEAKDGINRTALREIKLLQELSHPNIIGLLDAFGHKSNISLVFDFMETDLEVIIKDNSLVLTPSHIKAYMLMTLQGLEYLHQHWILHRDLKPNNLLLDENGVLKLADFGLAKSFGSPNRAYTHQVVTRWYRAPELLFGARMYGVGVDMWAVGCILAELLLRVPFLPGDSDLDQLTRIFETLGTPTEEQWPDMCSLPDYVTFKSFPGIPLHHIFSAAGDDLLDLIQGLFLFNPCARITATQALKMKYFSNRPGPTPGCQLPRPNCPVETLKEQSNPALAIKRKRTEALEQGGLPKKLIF
T2 sequence (P51948 whole entry, further chain): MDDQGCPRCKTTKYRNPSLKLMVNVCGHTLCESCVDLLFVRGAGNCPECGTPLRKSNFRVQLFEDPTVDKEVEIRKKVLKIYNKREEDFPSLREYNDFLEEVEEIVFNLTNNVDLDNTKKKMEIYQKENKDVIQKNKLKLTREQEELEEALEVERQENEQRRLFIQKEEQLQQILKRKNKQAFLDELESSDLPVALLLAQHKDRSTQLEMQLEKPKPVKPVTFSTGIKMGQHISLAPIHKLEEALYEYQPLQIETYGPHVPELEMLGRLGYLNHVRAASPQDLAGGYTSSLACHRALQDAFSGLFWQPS
Chain of CDK3/Cyclin E (Homo sapiens) (P24864 whole entry, looked up): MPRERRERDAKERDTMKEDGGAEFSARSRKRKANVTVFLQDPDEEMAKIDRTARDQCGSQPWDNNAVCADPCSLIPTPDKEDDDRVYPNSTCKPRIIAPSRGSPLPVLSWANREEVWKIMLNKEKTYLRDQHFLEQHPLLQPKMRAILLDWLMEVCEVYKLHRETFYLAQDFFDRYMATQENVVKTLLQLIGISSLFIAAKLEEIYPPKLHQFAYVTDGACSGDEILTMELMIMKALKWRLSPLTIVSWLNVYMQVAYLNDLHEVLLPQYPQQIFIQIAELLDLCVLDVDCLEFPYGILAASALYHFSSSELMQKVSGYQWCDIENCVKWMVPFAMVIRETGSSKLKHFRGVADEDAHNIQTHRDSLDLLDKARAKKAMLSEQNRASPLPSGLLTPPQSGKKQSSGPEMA
Chain of CDK3/Cyclin E (Homo sapiens) (Q00526 whole entry, looked up): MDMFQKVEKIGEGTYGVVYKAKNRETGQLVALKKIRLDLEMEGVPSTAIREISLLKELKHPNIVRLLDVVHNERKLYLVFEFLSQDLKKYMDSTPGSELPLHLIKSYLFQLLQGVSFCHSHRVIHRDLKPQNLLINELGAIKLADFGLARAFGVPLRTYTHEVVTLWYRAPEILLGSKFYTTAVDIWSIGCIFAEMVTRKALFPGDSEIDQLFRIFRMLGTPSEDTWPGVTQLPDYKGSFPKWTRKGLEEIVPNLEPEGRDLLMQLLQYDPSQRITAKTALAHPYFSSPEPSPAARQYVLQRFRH
Chain of Cyclin-dependent kinase 7 (P50613 whole entry): as the sequence (P50613 whole entry) above
Chain of CDK17/Cyclin-Y (Homo sapiens) (Q00537 whole entry): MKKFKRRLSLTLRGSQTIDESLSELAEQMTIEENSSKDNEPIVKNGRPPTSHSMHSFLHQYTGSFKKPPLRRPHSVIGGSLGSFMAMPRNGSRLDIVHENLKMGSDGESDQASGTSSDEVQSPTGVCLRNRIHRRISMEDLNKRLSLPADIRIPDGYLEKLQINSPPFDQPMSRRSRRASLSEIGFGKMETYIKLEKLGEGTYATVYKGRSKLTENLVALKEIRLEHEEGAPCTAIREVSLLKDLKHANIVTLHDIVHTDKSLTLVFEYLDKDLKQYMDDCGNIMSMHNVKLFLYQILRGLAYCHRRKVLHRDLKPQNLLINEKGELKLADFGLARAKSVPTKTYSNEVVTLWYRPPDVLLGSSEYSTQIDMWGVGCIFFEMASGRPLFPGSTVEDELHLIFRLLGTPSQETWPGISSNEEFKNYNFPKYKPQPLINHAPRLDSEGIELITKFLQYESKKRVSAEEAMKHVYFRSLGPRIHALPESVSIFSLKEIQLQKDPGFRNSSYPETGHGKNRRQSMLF
Chain of CDK17/Cyclin-Y (Homo sapiens) (Q8ND76 2-341 partner limits assumed): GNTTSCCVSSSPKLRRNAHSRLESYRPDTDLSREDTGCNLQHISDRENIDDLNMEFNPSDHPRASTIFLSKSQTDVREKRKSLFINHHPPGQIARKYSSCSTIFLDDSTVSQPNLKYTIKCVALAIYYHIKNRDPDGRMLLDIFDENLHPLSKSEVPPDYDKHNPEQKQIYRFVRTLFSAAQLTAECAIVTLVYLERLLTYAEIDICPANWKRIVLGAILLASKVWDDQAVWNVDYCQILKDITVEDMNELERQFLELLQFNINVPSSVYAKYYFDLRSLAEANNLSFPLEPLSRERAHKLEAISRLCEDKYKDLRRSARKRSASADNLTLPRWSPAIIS
Chain of CDK6/cyclin D3 (P30281 whole entry): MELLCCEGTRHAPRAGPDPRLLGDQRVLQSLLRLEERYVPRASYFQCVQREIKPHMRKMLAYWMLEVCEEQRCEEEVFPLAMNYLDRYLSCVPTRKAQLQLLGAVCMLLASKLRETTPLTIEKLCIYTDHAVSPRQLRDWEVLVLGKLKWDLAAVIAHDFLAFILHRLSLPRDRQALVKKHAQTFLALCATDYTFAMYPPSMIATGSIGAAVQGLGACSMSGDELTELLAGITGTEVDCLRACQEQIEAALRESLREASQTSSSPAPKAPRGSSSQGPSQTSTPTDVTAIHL
Chain of CDK6/cyclin D3 (Q00534 whole entry): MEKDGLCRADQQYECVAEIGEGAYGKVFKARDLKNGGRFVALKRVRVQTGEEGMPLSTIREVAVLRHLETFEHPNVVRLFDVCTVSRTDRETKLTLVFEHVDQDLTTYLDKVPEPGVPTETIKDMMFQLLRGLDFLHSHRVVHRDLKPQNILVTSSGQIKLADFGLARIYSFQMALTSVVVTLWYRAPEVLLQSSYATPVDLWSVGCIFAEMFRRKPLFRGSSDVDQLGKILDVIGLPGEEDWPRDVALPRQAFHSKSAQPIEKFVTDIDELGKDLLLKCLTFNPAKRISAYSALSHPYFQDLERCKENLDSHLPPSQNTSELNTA
Chain of CDK1/Cyclin E (Homo sapiens) (P06493 whole entry, looked up): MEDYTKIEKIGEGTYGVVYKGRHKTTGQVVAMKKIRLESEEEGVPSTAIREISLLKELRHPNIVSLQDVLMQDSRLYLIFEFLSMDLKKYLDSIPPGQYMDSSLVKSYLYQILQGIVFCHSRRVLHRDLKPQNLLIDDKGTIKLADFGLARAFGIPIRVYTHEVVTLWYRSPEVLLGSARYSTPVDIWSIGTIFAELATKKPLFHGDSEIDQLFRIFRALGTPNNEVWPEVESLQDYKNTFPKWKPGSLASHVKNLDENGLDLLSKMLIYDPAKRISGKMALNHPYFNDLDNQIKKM
Chain of CDK1/Cyclin E (Homo sapiens) (P24864 whole entry, looked up): as the sequence (P24864 whole entry, looked up) above

- % of control [1]: 27%
- IC50 [2]: 3.64 µM
- IC50 [3]: > 20 µM
- % of inhibition [4]: 31.6%
- % of inhibition [5]: 6.6%
- % of inhibition [6]: 7.5%
- % of inhibition [7]: 10.2%
- % of inhibition [8]: 22.1%
- % of inhibition [9]: 10.2%
- % of inhibition [10]: -2.3%
- % of inhibition [11]: -1%
- % of inhibition [12]: 14.8%
- % of inhibition [13]: 19%
- % of inhibition [14]: 8.7%
- % of inhibition [15]: 11.4%
- % of inhibition [16]: 18.7%
- IC50 [17]: 1.01 µM
- % of inhibition [18]: 14.5%
- % of inhibition [19]: 27.7%
- % of inhibition [20]: 44%
- % of inhibition [21]: 11.4%
- % of inhibition [22]: 38.7%
- IC50 [23]: > 10 µM
- % of inhibition [24]: -9.3%
- IC50 [25]: 16 µM
- IC50 [26]: > 10 µM
- % of inhibition [27]: 5.3%
- % of inhibition [28]: 88.8%
- % of control [29]: 9.5%
- IC50 [30]: 1.46 µM
- % of control [31]: 17.5%
- IC50 [32]: 0.82 µM
SMILES: COc1ccccc1-c1cc(Nc2cccc(CS(N)(=O)=O)c2)ncn1
